Columns and labels:
SpeG [1] = target: T1, SpeG (Staphylococcus aureus, UniProt A0A0H2XGJ0); assay: colorimetric DTNB SSAT assay; type: biochemical
T1 sequence (A0A0H2XGJ0 1-165): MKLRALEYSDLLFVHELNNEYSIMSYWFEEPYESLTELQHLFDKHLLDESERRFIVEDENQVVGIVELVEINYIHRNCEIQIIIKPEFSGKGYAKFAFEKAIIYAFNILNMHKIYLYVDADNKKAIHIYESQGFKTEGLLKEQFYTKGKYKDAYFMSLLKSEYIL

SAT1 = SAT1 (Homo sapiens, UniProt P21673); assay: colorimetric DTNB SSAT assay; type: biochemical
SpeG [2] = target: T1, SpeG; assay: thermal shift assay; type: binding; settings: 1.6 μM SpeG, 3-fold dilution series of compound; Tm decreased

SAT1, sequence (P21673 whole entry): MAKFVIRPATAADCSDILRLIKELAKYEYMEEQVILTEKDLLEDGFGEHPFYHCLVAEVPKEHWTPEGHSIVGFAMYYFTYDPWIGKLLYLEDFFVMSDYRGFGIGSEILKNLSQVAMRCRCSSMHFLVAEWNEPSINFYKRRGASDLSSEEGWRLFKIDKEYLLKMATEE

Compound | Ki (SpeG [1]) [µM] | Ki (SAT1) [µM] | Tm (SpeG [2])
CCCCCCCCCCCCN [OES2-0052] | 160 ± 38.3 | 160 ± 50.4 | –
CCCCCCCCCCN [OES2-0077] | 853 ± 238 | 743 ± 250 | –
CCCCCCCCCCCCNCCCN [OES2-0017] | – | – | OES2-0017 titration decreased SpeG Tm

Next, values leading:

Ki (SpeG [1]) [µM] | Ki (SAT1) [µM] | Tm (SpeG [2]) | Compound
1200 ± 425 | – | – | CCCCCCCCCCNCCN [OES2-0086]
1270 ± 263 | – | – | CCCCCCCCNCCN [OES2-0085]
– | 228 ± 49.7 | – | CCCCCCCCNCCCN [OES2-0045]

Reference: article doi:10.1101/2024.10.18.618978v3 (biorxiv, 2026)
